Drawing on patent US8063094B2, “Anti-cytokine heterocyclic compounds” (Boehringer Ingelheim International GmbH, priority 2007, dated 2011), this text covers melting point for one compound.

Broadly, the melting point is the temperature, or range, at which the solid turns liquid.

For the compound `CNCCCc1c(C(=O)O)[nH]c2ccc(C(N)=O)cc12` [Example 13, 5-carboxamide-3-(3-methylaminopropyl)-1H-indole-2-carboxylic acid], the melting point is 266 to 268 °C (dec.).
